According to paper PMC3878761, “Interactions of peptide triazole thiols with Env gp120 induce irreversible breakdown and inactivation of HIV-1 virions” (Retrovirology, 2013):
“Also recorded” adds a separate entry of the source. Starred links: 1 amine or outer side, 2 acyl side, 3 side chain; linkers in the order of their positions; H or OH if unused. Non-standard residues stand in square brackets, D forms with d. Residues, ends and D or L forms follow the SMILES beside them. X1 = O=C([C@@H]1C[C@H](n2cc([C]34[CH]5[CH]6[CH]7[CH]3[Fe]6754389%10[CH]4[CH]3[CH]8[CH]9[CH]4%10)nn2)CN1[*:1])[*:2]; βAla = NCCC(=O)O

How the values were obtained:
[1] = system: fully infectious HIV-1 BaL virions; details: upto 200 µM, n = 3
Method: (§2) The replication competent virions were assayed for peptide triazole-induced inhibition of infection, gp120 shedding and p24 release in a BSL-2 facility. Gradient purification of the viruses and p24 release assays were performed as with pseudoviruses (described in Materials and Methods above). Cell infection by virus and its inhibition by peptide triazoles were tested using a modified version of a previously reported p24 ELISA assay [60]. The p24 release assays as well as detection of gp120 shedding were conducted as with the BaL pseudovirions (described in Materials and Methods above).
(§3) Virions were purified using 6-20% iodixanol gradient and p24 content measured using ELISA. […] HOS CD4^+ve CCR5^+ve cells seeded, at 8,000 cells per well in a 96 well plate, were incubated for 24 hours followed by addition of pre-incubated inhibitor-virus mixture. […] Further, the peptide triazole and cell-free virus were pre-incubated for 30 min at 37°C followed by spinning for 2 hours at 13,600 rpm in a table top centrifuge (Eppendorf) at 4°C. Supernatant was separated and p24 content determined using the p24 capture ELISA (explained in the main Materials and Methods section) and gp120 using western blot analysis (explained in the Supplementary Text above).

HIV-1 BaL pseudovirus [2] = experiment: gp120 shedding from HIV-1 BaL pseudovirus (western blot)
HIV-1 YU2 gp120 = biological target: T1, HIV-1 YU2 gp120 (Human immunodeficiency virus type 1 group M subtype B, UniProt P35961); experiment: SPR direct binding to immobilized YU2 gp120; details: immobilized YU2 gp120, PBS + 0.005% Tween 20, pH 7.2, 25°C
T1 construct: made in house; host or cells: 293F cells
Method: (Additional file 1: Figure S2). […] Direct binding of the peptide triazole to sensor chip immobilized HIV-1 YU2 gp120 was measured as previously described using Surface Plasmon Resonance (SPR) with a Biacore 3000 optical biosensor (GE Healthcare). […] The cell viability was measured using the tetrazolium salt premix reagent, WST-1 from Takara Bio Inc. following the manufacturer’s protocol. The formazan product was measured using the microplate reader at absorbance wavelength 460 nm (Molecular Devices).

[3] = system: fully infectious HIV-1 BaL virions; experiment: gp120 shedding from fully infectious HIV-1 BaL; details: read-out: gp120 shedding IC50 (*, fully infectious), 30 min at 37°C, western blot, ± SD
Method: as §2, §3

HIV-1 BaL pseudovirus [4] = experiment: p24 release from HIV-1 BaL pseudovirus (ELISA); details: ELISA
[5] = system: gp41 of HIV-1 BaL pseudovirus (4E10 epitope); experiment: exposure of gp41 MPER epitope, 4E10 ELISA; details: fixed BaL pseudovirions, 30 min at 37°C (dose) or 1 μM (time), n = 3
Method: (§1) We also measured the presence of gp41 epitopes for human mAb’s 2 F5 and 4E10 using an altered ELISA detection method to minimize virus particle disruption. […] Virus fractions were collected and fixed with equal volume of 0.1% paraformaldehyde for 30 minutes at 4°C. The treated virus fractions were spun at 16,000 X g for 2 hours at 4°C in an Eppendorf table top centrifuge. Following PBS wash, fixed virions were coated on an ELISA plate at 50 μl per well and incubated overnight at 4°C. The plate was blocked with 3% BSA, and ELISA was used to detect gp41 epitopes with human gp41 antibodies 2 F5 and 4E10 followed by addition of anti-human IgG HRP secondary antibody.

[6] = system: gp41 of HIV-1 BaL pseudovirus (2 F5 epitope); experiment: exposure of gp41 MPER epitope, 2 F5 ELISA; details: fixed BaL pseudovirions, 30 min at 37°C (dose) or 1 μM (time), n = 3
Method: as §1

HIV-1 BaL pseudovirus [7] = system: HIV-1 BaL pseudovirus
[8] = system: gp41 of HIV-1 BaL pseudovirus (98–6 epitope); experiment: gp41 content of treated virions, mAb 98-6 western blot; details: western blot mAb 98–6, BaL pseudovirus
[9] = biological target: T2, sCD4 binding to plate-immobilized YU2 gp120 (Human immunodeficiency virus type 1 group M subtype B, UniProt P35961); experiment: competition ELISA, sCD4 binding to gp120; set-up: species or system HIV-1; details: ± SD, n > 3
T2 construct: made in house; host or cells: 293F cells

[10] = biological target: T3, 17b binding to plate-immobilized YU2 gp120 (Human immunodeficiency virus type 1 group M subtype B, UniProt P35961); experiment: competition ELISA, mAb 17b binding to gp120; set-up: species or system HIV-1; details: m17b binding to plate-immobilized gp120, ± SD, n > 3
T3 construct: made in house; host or cells: 293F cells

[11] = biological target: HIV-1 BaL Env gp120 on virions (HIV-1 BaL)
[12] = system: R5-tropic and X4-tropic HIV-1; set-up: method as in 2 sources, one per row (each row's own in cited_ref): ref 7-9, 12 = [7]; PMID 20518583; doi:10.2165/11203940-000000000-00000; Perry CM Maraviroc: a review of its use in the management of CCR5-tropic HIV-1 infection Drugs 2010 10 9 1189 1213 10.2165/11203940-000000000-00000 20518583 || [8]; PMID 23541872; doi:10.1016/j.antiviral.2013.03.017; Haqqani AA Tilton JC Entry inhibitors and their use in the treatment of HIV-1 infection Antiviral Res 2013 10 2 158 170 10.1016/j.antiviral.2013.03.017 23541872 || [9]; PMID 23290628; doi:10.1016/j.coviro.2012.12.002; Henrich TJ Kuritzkes DR HIV-1 entry inhibitors: recent development and clinical use Curr Opin Virol 2013 10 1 51 57 10.1016/j.coviro.2012.12.002 23290628 PMC4213740 || [12]; PMID 17933722; Emmelkamp JM Rockstroh JK CCR5 antagonists: comparison of efficacy, side effects, pharmacokinetics and interactions–review of the literature Eur J Med Res 2007 10 9 409 417 17933722 ||| ref 34 = [34]; PMID 23470147; doi:10.1021/bi400166b; Emileh A Tuzer F Yeh H Umashankara M Moreira DR Lalonde JM Bewley CA Abrams CF Chaiken IM A model of peptide triazole entry inhibitor binding to HIV-1 gp120 and the mechanism of bridging sheet disrupt; details: cited from earlier work

## CC[C@H](C)[C@H](NC(=O)[C@@H](N)CCCNC(=N)N)C(=O)N[C@@H](CC(N)=O)C(=O)N[C@@H](CC(N)=O)C(=O)N[C@H](C(=O)N1C[C@@H](n2cc([C]34[CH]5[CH]6[CH]7[CH]3[Fe]6754389%10[CH]4[CH]3[CH]8[CH]9[CH]4%10)nn2)C[C@H]1C(=O)N[C@@H](Cc1c[nH]c2ccccc12)C(=O)N[C@@H](CO)C(=O)N[C@@H](CCC(=O)O)C(=O)N[C@@H](C)C(=O)N[C@@H](CCSC)C(=O)N[C@@H](CCSC)C(N)=O)[C@@H](C)CC (some centres unmarked) [HNG156]
[1]
  p24 release, fully infectious, in words: No p24 release was observed
HIV-1 BaL pseudovirus [2]
  gp120 shedding, in words: caused gp120 shedding; also recorded: induced only gp120 shedding
HIV-1 YU2 gp120
  SPR direct binding to gp120, in words: bound to gp120
[3]
  IC50: 1800 nM
HIV-1 BaL pseudovirus [4]
  p24 release, in words: neither of these peptides caused p24 release
[5]
  reactivity to 4E10: MPER epitopes were poorly exposed
[6]
  reactivity to 2 F5: MPER epitopes were poorly exposed
HIV-1 BaL pseudovirus [7]; KR13 1 μM or HNG156 100 μM, 1 min to 24 hours, 37°C
  kinetics of infectivity inhibition versus gp120 shedding: infectivity inhibition and gp120 shedding had similar kinetics
[8]
  gp41 retention / 98–6 detection: gp41 remained associated with virions

## CC[C@H](C)[C@H](NC(=O)[C@@H](N)CCCNC(=N)N)C(=O)N[C@@H](CC(N)=O)C(=O)N[C@@H](CC(N)=O)C(=O)N[C@H](C(=O)N1C[C@@H](n2cc([C]34[CH]5[CH]6[CH]7[CH]3[Fe]6754389%10[CH]4[CH]3[CH]8[CH]9[CH]4%10)nn2)C[C@H]1C(=O)N[C@@H](Cc1c[nH]c2ccccc12)C(=O)N[C@@H](CO)C(=O)N[C@@H](CCC(=O)O)C(=O)N[C@@H](C)C(=O)N[C@@H](CCSC)C(=O)N[C@@H](CCSC)C(=O)NCCC(=O)N[C@@H](CCC(N)=O)C(=O)NCCC(=O)N[C@@H](CSCNC(C)=O)C(N)=O)[C@@H](C)CC (some centres unmarked) [KR13b]
HIV-1 BaL pseudovirus [2]
  gp120 shedding, in words: caused gp120 shedding; also recorded: induced only gp120 shedding
HIV-1 YU2 gp120
  SPR direct binding to gp120, in words: bound to gp120
HIV-1 BaL pseudovirus [4]
  p24 release, in words: neither of these peptides caused p24 release

## CC[C@H](C)[C@H](NC(=O)[C@H](CC(N)=O)NC(=O)[C@H](CC(N)=O)NC(=O)[C@@H](NC(=O)[C@@H](N)CCCNC(=N)N)[C@@H](C)CC)C(=O)N[C@@H](Cc1c[nH]c2ccccc12)C(=O)N1C[C@@H](n2cc([C]34[CH]5[CH]6[CH]7[CH]3[Fe]6754389%10[CH]4[CH]3[CH]8[CH]9[CH]4%10)nn2)C[C@H]1C(=O)N[C@@H](CO)C(=O)N[C@@H](CCC(=O)O)C(=O)N[C@@H](C)C(=O)N[C@@H](CCSC)C(=O)N[C@@H](CCSC)C(=O)NCCC(=O)N[C@@H](CCC(N)=O)C(=O)NCCC(=O)N[C@@H](CS)C(N)=O (some centres unmarked) [KR13s] (H-RINNIW[X1]SEAMM[βAla]Q[βAla]C-NH2; N-terminus assumed)
HIV-1 BaL pseudovirus [2]
  gp120 shedding, in words: not the KR13s control, caused gp120 shedding
HIV-1 YU2 gp120
  SPR direct binding to gp120, in words: low and inconsistent dose dependent signals
[9]
  IC50, sCD4 competition: undetected
[10]
  IC50, 17b competition: undetected
HIV-1 BaL pseudovirus [7]; single round infection assay
  inhibition of infection, in words: inactive

## KR13b (KR13 with the thiol blocked with an acetamidomethyl (ACM) group) (peptide)
[11]
  gp120 shedding from HIV-1 BaL pseudovirus (western blot), IC50: 120 nM
  inhibition of cell infection (viral inactivation), HIV-1 BaL pseudovirus, EC50: 52 nM

## Maraviroc [reference compound]
[12]
  antiviral tropism: blocks R5-tropic but not X4-tropic HIV-1
